US7138231B2 (priority 2000, dated 2006)
Entries after “also recorded” stand apart in the source; their conditions may differ.

Legend:
[1] = system: HIV-1 protease site-directed mutants (N88S, L63P, V77I, M46L) in resistance test vector; assay: Phenotypic susceptibility assay of resistance test vectors with site-directed mutations in PR
Description: The resistance test vectors containing a functional luciferase gene cassette were constructed and host cells were transfected with the resistance test vector DNA. […] The resistance test vector viral particles produced by transfecting the resistance test vector DNA into host cells, either in the presence or absence of protease inhibitors, were used to infect target host cells grown either in the absence of NRTI or NNRTI or in the presence of increasing concentrations of the drug. Luciferase activity in infected target host cells in the presence of drug was compared to the luciferase activity in infected target host cells in the absence of drug. […] The IC50 values were determined by plotting percent drug inhibition vs. log10 drug concentration.
Host cells were seeded in 10-cm-diameter dishes and were transfected one day after plating with resistance test vector plasmid DNA and the envelope expression vector. Transfections were performed using a calcium-phosphate co-precipitation procedure. The cell culture media containing the DNA precipitate was replaced with fresh medium, from one to 24 hours, after transfection. Cell culture media containing resistance test vector viral particles was harvested one to four days after transfection and was passed through a 0.45-mm filter before being stored at −80° C. HIV capsid protein (p24) levels in the harvested cell culture media were determined by an EIA method as described by the manufacturer (SIAC; Frederick, Md.). Before infection, target cells (293 and 293/T) were plated in cell culture media. Control infections were performed using cell culture media from mock transfections (no DNA) or transfections containing the resistance test vector plasmid DNA without the envelope expression plasmid. One to three or more days after infection the media was removed and cell lysis buffer (Promega) was added to each well. Cell lysates were assayed for luciferase activity. The inhibitory effect of the drug was determined using the following equation: % luciferase inhibition=[1−(RLUluc[drug]RLUluc)]×100 where RLUluc [drug] is the relative light unit of luciferase activity in infected cells in the presence of drug and RLUluc is the Relative Light Unit of luciferase activity in infected cells in the absence of drug. IC50 values were obtained from the sigmoidal curves that were generated from the data by plotting the percent inhibition of luciferase activity vs. the log10 drug concentration.
Mutations are introduced into the resistance test vector through any of the widely known methods for site-directed mutagenesis. […] A resistance test vector containing the specific mutation or group of mutations are then tested using the phenotypic susceptibility assay described above and the susceptibility profile is compared to that of a genetically defined wild-type (drug susceptible) resistance test vector which lacks the specific mutations.
Resistance test vectors were constructed containing the N88S mutation alone and in combination with other substitutions in PR (L63P, V77I and M46L) known to modulate the HIV susceptibility to PRIs. Mutations were introduced into the resistance test vector using the mega-primer PCR method for site-directed mutagenesis.

[2] = system: HIV-1 patient viruses with protease L90M; assay: Phenotypic susceptibility profiles of 58 patient virus samples with L90M, no other primary mutations; format: cell-based; settings: for % FC > 2.5: IDV; for % w with IDV FC > 2.5: L90M
[3] = system: HIV-1 patient viruses with protease L90M; assay: Phenotypic susceptibility profiles of 333 patient virus samples with L90M (not 30 or 50); format: cell-based
[4] = system: HIV-1 variants with protease substitutions; settings: cited from earlier work
[5] = system: HIV-1 patient-derived protease and reverse transcriptase segments (N88S in PR) in resistance test vectors; assay: Phenotypic drug susceptibility test with resistance test vectors from patient samples; format: cell-based; settings: for Fold Change vs. reference: N88S

CC(C)(C)NC(=O)[C@@H]1CN(Cc2cccnc2)CCN1C[C@@H](O)C[C@@H](Cc1ccccc1)C(=O)N[C@H]1c2ccccc2C[C@H]1O [indinavir]
change in susceptibility compared to wild type control RTV ([1]; L63P-N88S-RTV): decreased susceptibility
change in susceptibility compared to wild type control RTV ([1]; L63P-V77I-N88S-RTV): decrease in susceptibility; also recorded: resistance
change in susceptibility compared to wild type control RTV ([1]; M46L-L63P-N88S-RTV): slight decrease in susceptibility
change in susceptibility compared to wild type control RTV ([1]; M46L-L63P-V77I-N88S-RTV): decrease in susceptibility
% FC > 2.5 ([2]; L90M + mutation at position 46): 88%
% FC > 2.5 ([2]; L90M + mutation at position 71): 89%
% FC > 2.5 ([2]; L90M + mutation at position 71, listed as IDV): 89%
% FC > 2.5 ([2]; L90M + mutation at position 73): 89%
% FC > 2.5 ([2]; L90M + mutation at position 73, listed as IDV): 89%
% FC > 2.5 ([2]; listed as 90: all viruses with L90M): 69%
% w with IDV FC > 2.5 ([2]; number of secondary mutations 0): 69%
% w with IDV FC > 2.5 ([2]; number of secondary mutations 1): 70%
% w with IDV FC > 2.5 ([2]; number of secondary mutations 2): 70%
% w with IDV FC > 2.5 ([2]; number of secondary mutations 3): 80%
% w with IDV FC > 2.5 ([2]; number of secondary mutations 4): 87%
% w with IDV FC > 2.5 ([2]; number of secondary mutations 5): 100%
% w with IDV FC > 2.5 ([2]; number of secondary mutations 6): 100%
wt % > 2.5 ([3]; Indinavir FC>2.5, L90M, position 10 wild type): 66.7%
wt % > 2.5 ([3]; Indinavir FC>2.5, L90M, position 13 wild type): 87.1%
wt % > 2.5 ([3]; Indinavir FC>2.5, L90M, position 20 wild type): 81.2%
wt % > 2.5 ([3]; Indinavir FC>2.5, L90M, position 46 wild type): 76.3%
wt % > 2.5 ([3]; Indinavir FC>2.5, L90M, position 53 wild type): 83.2%
wt % > 2.5 ([3]; Indinavir FC>2.5, L90M, position 54 wild type): 76.0%
wt % > 2.5 ([3]; Indinavir FC>2.5, L90M, position 63 wild type): 50.0%
wt % > 2.5 ([3]; Indinavir FC>2.5, L90M, position 71 wild type): 69.0%
wt % > 2.5 ([3]; Indinavir FC>2.5, L90M, position 73 wild type): 80.6%
wt % > 2.5 ([3]; Indinavir FC>2.5, L90M, position 74 wild type): 87.0%
wt % > 2.5 ([3]; Indinavir FC>2.5, L90M, position 82 wild type): 78.3%
wt % > 2.5 ([3]; Indinavir FC>2.5, L90M, position 84 wild type): 79.0%
wt % > 2.5 ([3]; Indinavir FC>2.5, L90M, position 95 wild type): 83.5%
mt % > 2.5 ([3]; Indinavir FC>2.5, listed as 90: all samples with L90M): 84.7%
wt % > 10 ([3]; Indinavir FC>10, L90M, position 10 wild type): 23.1%
wt % > 10 ([3]; Indinavir FC>10, L90M, position 20 wild type): 47.2%
wt % > 10 ([3]; Indinavir FC>10, L90M, position 36 wild type): 48.9%
wt % > 10 ([3]; Indinavir FC>10, L90M, position 46 wild type): 44.4%
wt % > 10 ([3]; Indinavir FC>10, L90M, position 54 wild type): 36.3%
wt % > 10 ([3]; Indinavir FC>10, L90M, position 55 wild type): 51.8%
wt % > 10 ([3]; Indinavir FC>10, L90M, position 62 wild type): 45.3%
wt % > 10 ([3]; Indinavir FC>10, L90M, position 71 wild type): 37.0%
wt % > 10 ([3]; Indinavir FC>10, L90M, position 72 wild type): 50.0%
wt % > 10 ([3]; Indinavir FC>10, L90M, position 74 wild type): 57.3%
wt % > 10 ([3]; Indinavir FC>10, L90M, position 82 wild type): 39.9%
wt % > 10 ([3]; Indinavir FC>10, L90M, position 84 wild type): 46.3%
wt % > 10 ([3]; Indinavir FC>10, L90M, position 85 wild type): 52.3%
wt % > 10 ([3]; Indinavir FC>10, L90M, position 95 wild type): 51.6%
mt % > 10 ([3]; Indinavir FC>10, listed as 90: all samples with L90M): 53.8%
loss of susceptibility ([4]; mutant HIV-1 clones with mutations at residues 46, 63, and 82): fourfold
loss of susceptibility compared with the wild type ([4]; selection in MT-4 cells, substitutions at residues 32, 46, 71, and 82): 6.1 fold
change in susceptibility ([5]; patient sample RTV-360): decrease
change in susceptibility ([5]; patient sample RTV-627): decrease
change in susceptibility ([5]; patient sample RTV-0732): decrease; also recorded: decreased susceptibility
change in susceptibility ([5]; patient sample RTV-0910): decrease
change in susceptibility ([5]; patient sample RTV-1208): decrease
change in susceptibility ([5]; patient sample RTV-3542): decrease
change in susceptibility ([5]; patient sample RTV-3654): decrease

Cc1c(O)cccc1C(=O)N[C@@H](CSc1ccccc1)[C@H](O)CN1C[C@H]2CCCC[C@H]2C[C@H]1C(=O)NC(C)(C)C [nelfinavir]
change in susceptibility compared to wild type control RTV ([1]; L63P-N88S-RTV): decreased susceptibility
change in susceptibility compared to wild type control RTV ([1]; L63P-V77I-N88S-RTV): decrease in susceptibility; also recorded: resistance
change in susceptibility compared to wild type control RTV ([1]; L63P-V77I-RTV): slight decrease in susceptibility
change in susceptibility compared to wild type control RTV ([1]; M46L-L63P-N88S-RTV): decrease in susceptibility
change in susceptibility compared to wild type control RTV ([1]; M46L-L63P-V77I-N88S-RTV): decrease in susceptibility
change in susceptibility compared to wild type control RTV ([1]; N88S-RTV): slightly less susceptible
increase in 90% effective concentration ([4]; I84V and D30N single mutants and M46I/I84V double mutant of HIV-1 NL4-3): fivefold
change in susceptibility ([4]; M46I, L63P, or A71V alone): no change in susceptibility
reduced susceptibility ([4]; variant P22, 22 serial passages of HIV-1 NL4-3): sevenfold
decreased susceptibility ([4]; variant P28, additional six passages): 30 fold
change in susceptibility ([5]; patient sample RTV-360): decrease
change in susceptibility ([5]; patient sample RTV-627): decrease
change in susceptibility ([5]; patient sample RTV-0732): decrease; also recorded: decreased susceptibility
change in susceptibility ([5]; patient sample RTV-0910): decrease
change in susceptibility ([5]; patient sample RTV-1208): decrease
change in susceptibility ([5]; patient sample RTV-3542): decrease
change in susceptibility ([5]; patient sample RTV-3654): decrease

CC(C)c1nc(CN(C)C(=O)N[C@H](C(=O)N[C@@H](Cc2ccccc2)C[C@H](O)[C@H](Cc2ccccc2)NC(=O)OCc2cncs2)C(C)C)cs1 [ritonavir]
change in susceptibility compared to wild type control RTV ([1]; N88S-RTV): more susceptible
Fold Change vs. reference ([1]; site-directed mutation N88S): 0.36 fold
Fold Change vs. reference ([1]; site-directed mutations L63P): 1.27 fold
Fold Change vs. reference ([1]; site-directed mutations L63P, N88S): 0.77 fold
Fold Change vs. reference ([1]; site-directed mutations L63P, V77I): 1.73 fold
Fold Change vs. reference ([1]; site-directed mutations L63P, V77I, N88S): 1.39 fold
Fold Change vs. reference ([1]; site-directed mutations M46L, L63P, N88S): 0.85 fold
Fold Change vs. reference ([1]; site-directed mutations M46L, L63P, V77I, N88S): 1.33 fold
Percent of viruses with indicated primary mutation(s) with reduced susceptibility (fold change in IC50 > 2.5) ([3]; L90M): 93.4%
Percent of viruses with indicated primary mutation(s) with reduced susceptibility (fold change in IC50 > 10) ([3]; L90M): 66.1%
reduction in sensitivity ([4]; I84V substitution): 10 fold
level of resistance ([4]; I84V with addition of V82F): up to 20 fold
change in drug susceptibility ([4]; M46I, L63P, A71V introduced into wild-type NL4-3): did not result in significant changes in drug susceptibility
Fold Change vs. reference ([5]; patient sample 360, prior PRI IDV, PR I13V, K20M, M36V, N37A, M46I, I62V, L63P, I93L): 1.49 fold
Fold Change vs. reference ([5]; patient sample 627, prior PRI IDV, PR I13I/V, E35D, M46L, L63P, I64V, I73V): 1.50 fold
Fold Change vs. reference ([5]; patient sample 0732, prior PRI NFV, PR K14R, I15V, K20T, E35D, M36I, R41K, I62V, L63Q): 1.72 fold
Fold Change vs. reference ([5]; patient sample 0910, prior PRI NFV, PR M46I, L63P, V77I, I93I/L): 1.85 fold
Fold Change vs. reference ([5]; patient sample 1208, prior PRI NFV, PR I62V, L63P, V77I): 1.22 fold
Fold Change vs. reference ([5]; patient sample 3542, prior PRI IDV, PR I13V, K14R, N37D, M46I, L63P, I93L): 3.36 fold
Fold Change vs. reference ([5]; patient sample 3654, PR I13V, R41K, M46I, L63P, V77I, I93L): 1.95 fold
change in susceptibility ([5]; patient sample RTV-3542): decrease
